Laboratory results from US12251383B2, “Methods and compositions for KRAS inhibitors” (The Board of Regents of the University of Texas System, priority 2019, dated 2025).
Entries after “also recorded” stand apart in the source; their conditions may differ. Like-named read-outs stand apart in the source and are kept apart here.

What was measured:
[1] = molecular target: KRAS^Q61H in the GTP state (Homo sapiens, UniProt P01116, Q61H); experiment: MST binding, GTP-state KRAS Q61H
[2] = molecular target: Rap1B (Homo sapiens, UniProt P61224); experiment: MST binding, control Rap1B; details: control small GTPase
Excerpt: FIGS. 1A-1D show representative data for the predicted binding mode and measured affinity of disclosed compound 11 to KRAS. (FIG. 1A) Structure of the catalytic domain of KRAS used for the virtual screening. Lobe1 (residues 1-86) and lobe2 (residues 87-166) are highlighted in different colors, as well as switches 1 (residues 30-40) and 2 (residues 60-75). The location of the target allosteric pocket p1 is indicated. (FIG. 1B) Chemical structure of compound 11. (FIG. 1C) Predicted binding pose of compound 11, with the key residues that make polar or vdW contacts with the ligand labeled. (FIG. 1D) Microscale thermophoresis (MST) experiments indicating direct binding of compound 11 to KRAS, along with dissociation constants (KD) derived from the curves. Changes in fluorescence upon titration of […] KRAS with increasing concentration of compound are shown: KRAS^WT (red), KRAS^G12C (green), KRAS^G12D (purple) and KRAS^Q61M (blue), each bound to the non-hydrolyzable GTP analogue, guanylyl imidodiphosphate (GNP). The same experiments indicated no binding to GDP-bound KRAS^G12D and KRAS^WT as well as Rap1B, which was used as control. […]

[3] = test system: KRAS^G12D; experiment: Cell signaling (Western) in BHK cells expressing KRAS G12D; assay type: cell-based, hamster; details: for IC50: Mesocricetus auratus, BHK, 3 h
Procedure: Cell signaling. The inhibitory potential of compounds was tested in monoclonal Baby Hamster Kidney (BHK) cell lines stably expressing monomeric green fluorescence protein (mGFP)-tagged KRAS^G12D, K-Ras^G12V and HRAS^G12V. Cells were cultured in Dulbecco's Modified Eagle Medium (DMEM, Hyclone) supplemented with 10% v/v bovine calf serum and incubated with compound or vehicle (DMSO) for 3 h without serum. Cells were then harvested in lysis buffer (50 mM Tris (pH 7.5), 75 mM NaCl, 25 mM NaF, 5 mM MgCl2, 5 mM EGTA, 1 mM dithiothreitol, 100 μM NaVO4, 1% Nonidet P40 plus protease inhibitors) and subjected to Western analysis controlling protein loading by BCA (bicinchoninic acid) assay. Lysates were resolved with Bio-Rad polyacrylamide TGX 10% gel, transferred to polyvinylidene fluoride (PVDF) membrane and immunoblotted using pan-AKT (2920S), GFP (2956S), pAKT^S473 (4060L), p-cRaf^S338 (9427S), p-ERK^T202/Y204 (4370L), ERK1/2 (4695S) or β-actin antibodies (Cell Signaling Technology). IC50 values were calculated with Prism 4-parameter fit.
Cell signaling assays identify compound 11 as a promising initial hit Western analysis was used to quickly assess the potential impact of the predicted hits on MAPK signaling, a major pathway mediated by KRAS. Specifically, ERK1/2 phosphorylation levels (p-ERK) were monitored in BHK cells stably expressing KRAS^G12D treated with vehicle (DMSO), the MEK inhibitor […] (U) or compound at four different concentrations (1-100 μM). […] Compounds 9 and 11 (structures for compounds 1-11 are provided in Appendix I, attached hereto), on the other hand, decreased p-ERK levels at concentrations ≥50 μM and ≥5 μM, respectively. To verify the latter observation, the experiments were repeated in an expanded concentration range starting from 0.1 μM. […] However, compound 9 (see Appendix I, attached hereto) increased p-ERK levels at 25 and 38 μM in contrast to the decrease observed at higher concentrations (FIG. S1B; see Appendix I, attached hereto).

[4] = molecular target: T1, KRAS^G12D-cRaf interaction (Homo sapiens, UniProt P01116, G12D); experiment: FLIM-FRET of GFP-KRAS G12D and RFP-cRaf in BHK cells; assay type: cell-based, hamster; details: 1 μM
T1 construct: expressed in transfected cells; host or cells: BHK (baby hamster kidney) cells, transient expression
Excerpt: [formula] where P1 is polarization of free KRAS, P2 is polarization of Raf-bound KRAS, c is the total concentration of KRAS, and x the total concentration of Raf^RBD. (FIG. 2B) Amount of GFP-KRAS^G12D pulled down by GST-Raf^RBD after treatment of cell lysates with compound at the concentrations indicated (representative Westerns are shown at the top). The RBD sequence length was 1-149 and 51-131 in the fluorescence polarization and pull-down assays, respectively. (FIG. 2C) GFP fluorescence lifetime from FLIM-FRET using cells expressing GFP-KRAS^G12D alone or with RFP-Raf, with or without treatment by 1 μM compound 11. Data are shown as mean±S.E; significance estimated by one-way analysis of variance.
Fluorescence lifetime imaging (FLIM)-fluorescence resonance energy transfer (FRET). FLIM-FRET experiments were carried out using a lifetime fluorescence imaging attachment (Lambert Instruments, The Netherlands) on an inverted microscope (43). BHK cells transiently expressing mGFP-tagged KRAS^G12D (donor), alone or with mRFP-tagged cRaf^WT (acceptor) (using 1:5 ratio), were prepared as indicated in each experiment. The samples were excited using a sinusoidally modulated 3 W 470 nm light-emitting diode at 40 MHz under epi-illumination. Fluorescein was used as a lifetime reference standard. […] The phase and modulation were determined from 12 phase settings using the manufacturer's software. […]

Rap1B, sequence (P61224 whole entry, species assumed, the tested form may be a part): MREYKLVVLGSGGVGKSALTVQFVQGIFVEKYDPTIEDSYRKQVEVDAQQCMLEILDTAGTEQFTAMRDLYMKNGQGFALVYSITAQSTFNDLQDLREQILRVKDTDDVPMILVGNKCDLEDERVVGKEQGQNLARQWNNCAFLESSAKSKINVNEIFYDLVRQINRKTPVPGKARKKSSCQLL

SMILES: Cc1nn2c(N3CCN(CCO)CC3)cc(-c3ccccc3)nc2c1-c1ccccc1 [Compound 11, 2-[4-(8-methyl-3,9-diphenyl-2,6,7-triazabicyclo[4.3.0]nona-2,4,7,9-tetraen-5-yl)piperazin-1-yl]ethanol]
- Kd [1]: 400 to 700 nM
- binding (in words) [2]: no binding
- concentration at which p-ERK levels are decreased ([3]; BHK KRAS^G12D): ≥ 5 µM
- effect on p-ERK levels ([3]; BHK KRAS^G12D): dose-dependently reduced; also recorded: dose-dependently decreases
- effect on p-cRaf levels ([3]; BHK KRAS^G12D): dose-dependently reduced; also recorded: dose-dependently decreases
- reduction of p-ERK levels ([3]; BHK KRAS^G12D, at 5 μM): ~50%
- IC50 ([3]; read-out: IC50 for p-ERK): 1300 nM
- IC50 ([3]; read-out: IC50 for p-cRaf): 700 nM
- KRAS^G12D-cRaf interaction (quenching of GFP fluorescence lifetime) [4]: significantly reduced
